According to patent publication US11331299B2, “Medicinal use of serrulatane diterpenes” (The University of Sydney, priority 2016, dated 2022):
Counter-ions that a name gives are not always drawn. Like-named read-outs stand apart in the source and are kept apart here.

Columns and labels:
USP 16 (h) = USP 16 (h) (Homo sapiens, UniProt Q9Y5T5); test: Epigenetic enzyme assay, Ubiquitin modifying enzymes; assay type: biochemical; conditions: Table 10; read-out: Reference IC50
ATAD2B (h) bromodomain = target: T1, ATAD2B (h) bromodomain (Homo sapiens, UniProt Q9ULI0); test: Epigenetic binding assay, Bromodomain; conditions: Table 4; read-out: Reference IC50
T1 construct: ATAD2B bromodomain; host or cells: E. coli
T1 sequence (Q9ULI0 951-1066 limits assumed): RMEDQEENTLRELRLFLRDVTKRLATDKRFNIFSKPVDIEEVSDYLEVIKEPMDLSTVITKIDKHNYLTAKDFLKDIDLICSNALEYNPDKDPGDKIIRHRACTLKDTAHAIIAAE

PB1(4) (h) bromodomain = target: T2, PB1(4) (h) bromodomain (Homo sapiens, UniProt Q86U86); test: Epigenetic binding assay, Bromodomain; conditions: Table 4; read-out: Reference IC50
T2 construct: Bromodomain

USP 10 (h) = USP 10 (h) (Homo sapiens, UniProt Q14694); test: Epigenetic enzyme assay, Ubiquitin modifying enzymes; assay type: biochemical; conditions: Table 10; read-out: Reference IC50
Lipid Peroxidase = test: Lipid Peroxidase; assay type: biochemical, Dunkin Hartley Guinea pig; conditions: concentration-response 10 to 0.01 μM
[1] = test system: 4 normal cell types, CCD 841 CoN, HMEC, HREC and Wi38; test: OncoPanel normal cell proliferation assay (3-day), panel; assay type: cell-based; conditions: the other three cell lines (CCD 841 CoN, HREC, Wi38)
CCD 841 CoN = test: OncoPanel normal cell proliferation assay (3-day); assay type: cell-based; conditions: Homo sapiens, 72 h, colon epithelial, 3-day incubation
HMEC = test: OncoPanel normal cell proliferation assay (3-day); assay type: cell-based
HREC = test: OncoPanel normal cell proliferation assay (3-day); assay type: cell-based; conditions: 72 h, renal mixed epithelial, 3-day incubation
Wi38 = test: OncoPanel normal cell proliferation assay (3-day); assay type: cell-based; conditions: Homo sapiens, WI-38, 72 h, Wi38, lung fibroblast, 3-day incubation
[2] = test system: IL-17A secretion from human PBMC stimulated with antiCD3/antiCD28-coated beads; conditions: assay description, reference compound, cited from earlier work
NSD1 (h) = NSD1 (h) (Homo sapiens, UniProt Q96L73); test: Epigenetic enzyme assay, Methyltransferases (MTs); assay type: biochemical
WHSC1(h) (NSD2(h)) = target: T3, WHSC1(h) (NSD2(h)) (Homo sapiens, UniProt O96028); test: Epigenetic enzyme assay, Methyltransferases (MTs); assay type: biochemical; conditions: Table 10; read-out: Reference IC50
T3 sequence (O96028 1-1365): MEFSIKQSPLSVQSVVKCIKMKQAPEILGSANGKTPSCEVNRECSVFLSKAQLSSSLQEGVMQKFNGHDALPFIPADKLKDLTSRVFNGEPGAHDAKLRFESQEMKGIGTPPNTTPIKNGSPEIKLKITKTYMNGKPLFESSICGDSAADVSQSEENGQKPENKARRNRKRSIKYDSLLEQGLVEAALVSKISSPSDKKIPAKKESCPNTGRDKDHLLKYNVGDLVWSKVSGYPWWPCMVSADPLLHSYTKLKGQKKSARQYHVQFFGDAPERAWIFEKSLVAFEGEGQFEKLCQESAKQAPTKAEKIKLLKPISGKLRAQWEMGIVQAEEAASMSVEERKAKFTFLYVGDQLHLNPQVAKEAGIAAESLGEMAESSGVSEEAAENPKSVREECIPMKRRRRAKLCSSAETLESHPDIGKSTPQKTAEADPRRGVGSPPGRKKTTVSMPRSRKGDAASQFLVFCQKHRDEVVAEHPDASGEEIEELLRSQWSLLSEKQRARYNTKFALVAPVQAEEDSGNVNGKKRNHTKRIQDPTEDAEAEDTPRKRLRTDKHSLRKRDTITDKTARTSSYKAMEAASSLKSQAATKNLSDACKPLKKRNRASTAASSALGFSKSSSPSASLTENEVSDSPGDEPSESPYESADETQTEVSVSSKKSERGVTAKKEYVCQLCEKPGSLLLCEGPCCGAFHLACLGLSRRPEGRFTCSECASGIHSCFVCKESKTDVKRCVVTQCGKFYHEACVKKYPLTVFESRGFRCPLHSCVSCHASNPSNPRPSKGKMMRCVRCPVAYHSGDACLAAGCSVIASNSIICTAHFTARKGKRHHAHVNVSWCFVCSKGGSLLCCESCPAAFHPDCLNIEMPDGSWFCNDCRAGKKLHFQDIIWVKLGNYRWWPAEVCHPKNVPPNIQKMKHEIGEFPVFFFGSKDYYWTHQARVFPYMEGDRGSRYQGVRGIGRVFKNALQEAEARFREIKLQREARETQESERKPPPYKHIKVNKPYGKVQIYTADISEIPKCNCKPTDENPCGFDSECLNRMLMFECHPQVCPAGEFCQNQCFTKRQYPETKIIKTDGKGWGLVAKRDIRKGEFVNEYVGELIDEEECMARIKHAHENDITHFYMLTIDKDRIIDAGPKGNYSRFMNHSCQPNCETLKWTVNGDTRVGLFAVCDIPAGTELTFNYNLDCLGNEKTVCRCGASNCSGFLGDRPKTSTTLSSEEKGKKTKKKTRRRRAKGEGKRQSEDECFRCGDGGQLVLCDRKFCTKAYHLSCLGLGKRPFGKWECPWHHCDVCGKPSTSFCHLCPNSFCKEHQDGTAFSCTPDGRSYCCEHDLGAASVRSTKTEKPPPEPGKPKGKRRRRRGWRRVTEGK

SETD8 (h) = target: T4, SETD8 (h) (Homo sapiens, UniProt Q9NQR1); test: Epigenetic enzyme assay, Methyltransferases (MTs); assay type: biochemical; conditions: Table 10; read-out: Reference IC50
T4 sequence (Q9NQR1 1-393): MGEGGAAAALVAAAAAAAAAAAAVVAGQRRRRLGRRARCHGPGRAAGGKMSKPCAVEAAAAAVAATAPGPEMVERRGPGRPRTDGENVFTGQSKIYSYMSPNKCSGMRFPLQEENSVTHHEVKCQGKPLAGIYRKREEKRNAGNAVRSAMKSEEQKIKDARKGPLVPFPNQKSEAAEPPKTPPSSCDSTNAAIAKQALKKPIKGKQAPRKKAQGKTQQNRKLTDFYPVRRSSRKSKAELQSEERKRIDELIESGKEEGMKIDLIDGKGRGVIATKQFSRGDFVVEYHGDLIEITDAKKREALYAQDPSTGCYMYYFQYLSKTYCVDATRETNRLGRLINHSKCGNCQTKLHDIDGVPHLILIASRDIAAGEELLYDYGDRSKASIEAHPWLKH

[3] = target: T5, sirtuin 2 (h) (inhibitor effect) (Homo sapiens, UniProt Q8IXJ6); test: Epigenetic enzyme assay, Sirtuins; assay type: biochemical; conditions: Table 10; read-out: Reference IC50
T5 sequence (Q8IXJ6 1-389): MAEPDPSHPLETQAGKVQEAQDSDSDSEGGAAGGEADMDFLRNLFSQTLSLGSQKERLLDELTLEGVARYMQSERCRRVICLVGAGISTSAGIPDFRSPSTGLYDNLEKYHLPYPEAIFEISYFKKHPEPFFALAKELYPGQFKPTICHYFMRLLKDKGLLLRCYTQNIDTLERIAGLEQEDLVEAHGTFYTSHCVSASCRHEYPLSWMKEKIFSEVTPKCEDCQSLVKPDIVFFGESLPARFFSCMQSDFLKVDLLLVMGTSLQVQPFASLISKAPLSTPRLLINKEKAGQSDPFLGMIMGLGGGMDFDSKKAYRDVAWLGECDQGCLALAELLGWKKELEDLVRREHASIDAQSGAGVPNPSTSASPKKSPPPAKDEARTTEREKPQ

NSD3/WHSC1L1 (h) = target: T6, NSD3/WHSC1L1 (h) (Homo sapiens, UniProt Q9BZ95); test: Epigenetic enzyme assay, Methyltransferases (MTs); assay type: biochemical; conditions: Table 10; read-out: Reference IC50
T6 sequence (Q9BZ95 1-1437): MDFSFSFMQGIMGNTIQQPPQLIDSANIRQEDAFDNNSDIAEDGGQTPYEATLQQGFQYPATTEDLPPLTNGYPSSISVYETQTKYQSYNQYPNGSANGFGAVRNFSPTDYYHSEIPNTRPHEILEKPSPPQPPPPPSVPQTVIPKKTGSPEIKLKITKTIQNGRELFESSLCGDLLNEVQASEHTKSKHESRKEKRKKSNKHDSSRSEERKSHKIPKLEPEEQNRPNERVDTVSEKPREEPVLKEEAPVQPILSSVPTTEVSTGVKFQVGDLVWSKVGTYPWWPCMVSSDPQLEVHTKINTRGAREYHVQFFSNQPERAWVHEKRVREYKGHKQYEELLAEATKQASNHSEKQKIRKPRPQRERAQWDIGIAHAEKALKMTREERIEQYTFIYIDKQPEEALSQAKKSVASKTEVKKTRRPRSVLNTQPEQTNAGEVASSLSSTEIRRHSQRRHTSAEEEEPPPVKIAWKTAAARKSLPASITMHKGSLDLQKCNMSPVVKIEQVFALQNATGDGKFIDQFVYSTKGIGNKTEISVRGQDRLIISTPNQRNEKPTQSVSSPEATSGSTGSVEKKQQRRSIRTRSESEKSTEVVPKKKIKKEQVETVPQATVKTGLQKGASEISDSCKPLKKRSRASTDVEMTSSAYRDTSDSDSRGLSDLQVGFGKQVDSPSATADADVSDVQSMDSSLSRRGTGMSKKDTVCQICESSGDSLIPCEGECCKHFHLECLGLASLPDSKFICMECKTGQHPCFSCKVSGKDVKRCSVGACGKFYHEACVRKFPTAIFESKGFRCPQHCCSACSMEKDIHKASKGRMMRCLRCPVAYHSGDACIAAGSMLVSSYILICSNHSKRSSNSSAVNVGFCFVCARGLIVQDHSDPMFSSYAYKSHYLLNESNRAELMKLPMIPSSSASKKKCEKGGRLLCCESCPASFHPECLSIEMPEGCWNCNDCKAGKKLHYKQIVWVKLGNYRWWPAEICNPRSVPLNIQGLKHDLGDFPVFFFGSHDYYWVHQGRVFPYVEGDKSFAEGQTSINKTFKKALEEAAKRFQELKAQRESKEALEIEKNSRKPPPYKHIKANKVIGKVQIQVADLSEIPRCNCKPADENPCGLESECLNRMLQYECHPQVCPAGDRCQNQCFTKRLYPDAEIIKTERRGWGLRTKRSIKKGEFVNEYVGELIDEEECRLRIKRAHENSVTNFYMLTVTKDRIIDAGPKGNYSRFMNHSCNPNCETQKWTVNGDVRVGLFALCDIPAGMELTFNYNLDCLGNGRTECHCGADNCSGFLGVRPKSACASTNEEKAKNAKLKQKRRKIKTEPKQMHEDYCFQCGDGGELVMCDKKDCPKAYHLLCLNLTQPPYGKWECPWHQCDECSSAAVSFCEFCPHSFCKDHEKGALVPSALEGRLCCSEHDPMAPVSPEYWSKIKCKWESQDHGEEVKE

NSD1 (h), sequence (Q96L73 whole entry): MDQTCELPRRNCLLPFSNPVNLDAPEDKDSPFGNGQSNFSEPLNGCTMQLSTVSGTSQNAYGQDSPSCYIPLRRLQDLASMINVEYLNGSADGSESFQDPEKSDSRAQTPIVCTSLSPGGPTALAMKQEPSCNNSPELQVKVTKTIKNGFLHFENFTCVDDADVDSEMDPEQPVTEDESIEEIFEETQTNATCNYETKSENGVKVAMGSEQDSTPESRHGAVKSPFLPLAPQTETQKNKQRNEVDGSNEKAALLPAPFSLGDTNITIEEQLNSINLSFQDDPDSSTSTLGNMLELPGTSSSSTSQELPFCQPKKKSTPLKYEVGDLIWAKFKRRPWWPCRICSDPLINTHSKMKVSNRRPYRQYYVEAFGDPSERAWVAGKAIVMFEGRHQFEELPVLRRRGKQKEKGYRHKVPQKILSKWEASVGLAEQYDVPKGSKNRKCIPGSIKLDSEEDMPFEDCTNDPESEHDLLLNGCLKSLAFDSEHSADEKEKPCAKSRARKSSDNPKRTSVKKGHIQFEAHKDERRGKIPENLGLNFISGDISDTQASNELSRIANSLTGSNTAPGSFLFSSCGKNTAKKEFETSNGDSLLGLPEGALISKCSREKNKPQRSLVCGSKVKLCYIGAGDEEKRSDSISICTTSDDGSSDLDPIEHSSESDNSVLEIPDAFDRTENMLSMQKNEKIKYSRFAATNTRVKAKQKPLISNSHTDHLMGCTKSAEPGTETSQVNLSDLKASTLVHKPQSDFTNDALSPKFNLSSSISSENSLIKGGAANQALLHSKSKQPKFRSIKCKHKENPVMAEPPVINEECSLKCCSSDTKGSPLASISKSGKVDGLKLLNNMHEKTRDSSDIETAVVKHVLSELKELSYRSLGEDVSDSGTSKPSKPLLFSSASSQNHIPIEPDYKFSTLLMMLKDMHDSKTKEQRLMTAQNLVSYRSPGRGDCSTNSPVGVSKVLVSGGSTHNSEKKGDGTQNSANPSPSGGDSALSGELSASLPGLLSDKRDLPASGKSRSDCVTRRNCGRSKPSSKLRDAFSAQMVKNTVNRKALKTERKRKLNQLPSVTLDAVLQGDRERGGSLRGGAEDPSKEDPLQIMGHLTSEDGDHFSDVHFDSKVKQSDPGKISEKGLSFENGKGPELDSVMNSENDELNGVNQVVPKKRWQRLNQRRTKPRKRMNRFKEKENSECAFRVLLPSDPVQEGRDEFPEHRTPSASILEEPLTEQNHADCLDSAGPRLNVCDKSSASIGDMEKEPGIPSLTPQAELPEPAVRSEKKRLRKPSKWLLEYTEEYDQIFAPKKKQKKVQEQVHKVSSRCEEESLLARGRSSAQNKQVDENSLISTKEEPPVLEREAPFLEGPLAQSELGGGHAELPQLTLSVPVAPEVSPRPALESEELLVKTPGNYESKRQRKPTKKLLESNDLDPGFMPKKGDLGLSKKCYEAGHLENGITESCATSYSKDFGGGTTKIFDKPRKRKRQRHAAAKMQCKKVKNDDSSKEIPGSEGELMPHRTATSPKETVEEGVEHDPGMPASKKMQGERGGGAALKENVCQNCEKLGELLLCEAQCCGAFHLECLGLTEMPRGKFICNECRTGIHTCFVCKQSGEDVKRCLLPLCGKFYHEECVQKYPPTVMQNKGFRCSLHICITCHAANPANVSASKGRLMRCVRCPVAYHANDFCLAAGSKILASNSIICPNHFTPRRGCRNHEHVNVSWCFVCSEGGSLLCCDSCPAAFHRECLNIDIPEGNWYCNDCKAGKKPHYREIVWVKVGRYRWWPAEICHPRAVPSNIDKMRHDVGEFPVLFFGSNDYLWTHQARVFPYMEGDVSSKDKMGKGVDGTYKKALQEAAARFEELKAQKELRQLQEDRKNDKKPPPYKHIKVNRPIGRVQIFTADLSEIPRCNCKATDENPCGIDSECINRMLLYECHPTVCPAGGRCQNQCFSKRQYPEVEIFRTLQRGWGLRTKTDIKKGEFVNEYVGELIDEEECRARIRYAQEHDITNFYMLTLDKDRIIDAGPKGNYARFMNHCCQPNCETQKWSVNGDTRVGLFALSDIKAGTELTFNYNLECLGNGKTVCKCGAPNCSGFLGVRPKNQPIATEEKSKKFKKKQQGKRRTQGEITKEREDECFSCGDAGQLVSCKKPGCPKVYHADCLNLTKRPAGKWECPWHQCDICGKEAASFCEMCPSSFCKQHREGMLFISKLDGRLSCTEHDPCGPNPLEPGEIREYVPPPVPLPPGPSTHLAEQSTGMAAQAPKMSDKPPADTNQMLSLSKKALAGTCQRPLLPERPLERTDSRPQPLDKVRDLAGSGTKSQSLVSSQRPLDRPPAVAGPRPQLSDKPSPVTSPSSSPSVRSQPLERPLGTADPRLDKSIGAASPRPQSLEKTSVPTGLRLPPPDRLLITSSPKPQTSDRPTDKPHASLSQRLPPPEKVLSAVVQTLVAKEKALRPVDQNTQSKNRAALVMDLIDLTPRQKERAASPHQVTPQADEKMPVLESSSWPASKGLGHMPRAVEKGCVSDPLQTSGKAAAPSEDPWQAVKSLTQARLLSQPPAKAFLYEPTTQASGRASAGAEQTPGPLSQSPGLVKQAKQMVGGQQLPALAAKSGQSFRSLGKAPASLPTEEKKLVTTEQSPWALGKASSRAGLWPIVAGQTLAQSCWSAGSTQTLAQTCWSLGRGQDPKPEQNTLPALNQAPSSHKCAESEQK
USP 10 (h), sequence (Q14694 whole entry): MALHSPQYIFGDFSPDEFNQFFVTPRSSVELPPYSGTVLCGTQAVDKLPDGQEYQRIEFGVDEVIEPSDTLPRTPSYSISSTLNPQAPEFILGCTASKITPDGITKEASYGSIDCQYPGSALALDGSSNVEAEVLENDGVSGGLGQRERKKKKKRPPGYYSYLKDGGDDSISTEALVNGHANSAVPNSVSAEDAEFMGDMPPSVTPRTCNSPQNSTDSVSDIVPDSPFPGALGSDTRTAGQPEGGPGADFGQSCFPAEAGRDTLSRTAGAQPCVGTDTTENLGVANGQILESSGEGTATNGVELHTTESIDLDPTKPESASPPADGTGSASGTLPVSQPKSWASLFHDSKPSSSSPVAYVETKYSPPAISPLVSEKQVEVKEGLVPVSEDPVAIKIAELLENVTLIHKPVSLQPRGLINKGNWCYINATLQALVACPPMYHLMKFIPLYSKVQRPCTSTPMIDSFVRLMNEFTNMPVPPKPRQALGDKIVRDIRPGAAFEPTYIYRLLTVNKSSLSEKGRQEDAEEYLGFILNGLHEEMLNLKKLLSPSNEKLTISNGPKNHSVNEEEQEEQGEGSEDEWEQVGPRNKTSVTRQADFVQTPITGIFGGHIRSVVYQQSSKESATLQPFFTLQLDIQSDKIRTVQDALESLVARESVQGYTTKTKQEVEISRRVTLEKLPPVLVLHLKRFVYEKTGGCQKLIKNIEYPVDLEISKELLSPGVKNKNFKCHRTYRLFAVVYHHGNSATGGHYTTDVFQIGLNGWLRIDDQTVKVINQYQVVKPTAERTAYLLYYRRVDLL
USP 16 (h), sequence (Q9Y5T5 whole entry): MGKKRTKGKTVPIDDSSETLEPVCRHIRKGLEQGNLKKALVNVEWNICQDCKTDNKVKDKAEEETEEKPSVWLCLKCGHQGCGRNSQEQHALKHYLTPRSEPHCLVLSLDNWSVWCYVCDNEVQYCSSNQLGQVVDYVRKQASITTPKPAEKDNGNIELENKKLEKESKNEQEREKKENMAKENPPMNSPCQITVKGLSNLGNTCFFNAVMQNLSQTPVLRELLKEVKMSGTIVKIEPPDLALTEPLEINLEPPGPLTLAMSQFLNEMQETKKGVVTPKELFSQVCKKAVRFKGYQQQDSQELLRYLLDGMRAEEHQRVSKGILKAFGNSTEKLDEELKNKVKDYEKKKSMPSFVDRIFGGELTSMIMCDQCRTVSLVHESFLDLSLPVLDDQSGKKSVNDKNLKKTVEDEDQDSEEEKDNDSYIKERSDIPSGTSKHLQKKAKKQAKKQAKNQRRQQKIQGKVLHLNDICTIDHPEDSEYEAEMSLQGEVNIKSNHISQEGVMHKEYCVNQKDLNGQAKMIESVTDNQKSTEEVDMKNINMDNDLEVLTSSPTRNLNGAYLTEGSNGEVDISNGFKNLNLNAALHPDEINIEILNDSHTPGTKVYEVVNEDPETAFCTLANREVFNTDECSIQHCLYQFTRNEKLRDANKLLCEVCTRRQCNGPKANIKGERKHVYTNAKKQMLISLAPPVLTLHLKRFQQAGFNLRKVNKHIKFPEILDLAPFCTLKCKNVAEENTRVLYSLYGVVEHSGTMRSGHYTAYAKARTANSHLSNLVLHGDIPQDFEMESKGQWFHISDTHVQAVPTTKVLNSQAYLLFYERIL
T2 sequence (Q86U86 518-625 limits assumed): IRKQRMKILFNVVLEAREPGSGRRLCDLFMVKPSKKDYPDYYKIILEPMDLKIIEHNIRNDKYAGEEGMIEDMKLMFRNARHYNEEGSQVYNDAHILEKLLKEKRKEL

## NC(=O)CI [Iodoacetamide, reference compound]
USP 16 (h)
  IC50: 3.5 µM

## Cc1cc(/N=N/c2cc(S(=O)(=O)O)c(C)cc2C)c(N)cc1O [Ischemin sodium salt, reference compound]
ATAD2B (h) bromodomain
  IC50: 76.6 µM
PB1(4) (h) bromodomain
  IC50: 6.8 µM

## CN1C(=O)C=CC1=O [N-Methylmaleimide, reference compound]
USP 10 (h)
  IC50: 1000 µM

## CCCOC(=O)c1cc(O)c(O)c(O)c1 [N-Propyl Gallate, reference compound]
Lipid Peroxidase
  IC50: 206 µM

## CC(=O)O[C@H]1C(=O)[C@@]2(C)[C@H]([C@H](OC(=O)c3ccccc3)[C@]3(O)C[C@H](OC(=O)[C@H](O)[C@@H](NC(=O)c4ccccc4)c4ccccc4)C(C)=C1C3(C)C)[C@]1(OC(C)=O)CO[C@@H]1C[C@@H]2O [Paclitaxel, paclitaxel]
[1]
  toxicity towards normal cells: high toxicity
CCD 841 CoN; read-out: Cell Count EC50
  EC50: 0.0119 µM
CCD 841 CoN; read-out: Cell Count GI50
  GI50: 0.0221 µM
HMEC
  toxicity towards normal cells: low toxicity
HMEC; Homo sapiens, 72 h, HMEC, mammary epithelial, 3-day incubation, read-out: Cell Count EC50
  EC50: > 30 µM
HMEC; Homo sapiens, 72 h, HMEC, mammary epithelial, 3-day incubation, read-out: Cell Count GI50
  GI50: > 30 µM
HMEC; Homo sapiens, 72 h, HMEC, mammary epithelial, 3-day incubation, read-out: Cell Count IC50
  IC50: > 30 µM
HREC; read-out: Cell Count EC50
  EC50: 0.00172 µM
HREC; read-out: Cell Count GI50
  GI50: 0.0016 µM
HREC; read-out: Cell Count IC50
  IC50: 0.0484 µM
Wi38; read-out: Cell Count EC50
  EC50: 0.0039 µM
Wi38; read-out: Cell Count GI50
  GI50: 0.0036 µM
Wi38; read-out: Cell Count IC50
  IC50: 0.00941 µM

## C=CC[C@@H]1/C=C(\C)C[C@H](C)C[C@H](OC)[C@H]2O[C@@](O)(C(=O)C(=O)N3CCCC[C@H]3C(=O)O[C@H](/C(C)=C/[C@@H]3CC[C@@H](O)[C@H](OC)C3)[C@H](C)[C@@H](O)CC1=O)[C@H](C)C[C@@H]2OC [Tacrolimus]
[2]
  Emax (plateau of the fitted curve), IL-17A release: approximately 90%
[2]; read-out: EC50, inhibition of IL-17A release
  EC50: ~0.00034 µM

## CN1C(=O)[C@@]23C[C@]4([C@]56C[C@@]78SS[C@@](CO)(C(=O)N7[C@H]5Nc5ccccc56)N(C)C8=O)c5ccccc5N[C@@H]4N2C(=O)[C@]1(CO)SS3 [chaetocin, reference compound]
NSD1 (h); Table 10, read-out: Reference IC50
  IC50: 0.13 µM
NSD1 (h); Table 11, inhibition/concentration-response curve, read-out: IC50
  IC50: 0.24 µM
WHSC1(h) (NSD2(h))
  IC50: 0.48 µM

## O=C([O-])c1ccccc1-c1c2cc(Br)c(=O)cc-2oc2[c]([Hg+])c([O-])c(Br)cc12.[Na+].[Na+].[OH-] [mercurochrome, reference compound]
SETD8 (h)
  IC50: 2.4 µM

## Cc1ccc(C(=O)Nc2ccc(S(=O)(=O)O)c3cc(S(=O)(=O)O)cc(S(=O)(=O)O)c23)cc1NC(=O)c1cccc(NC(=O)Nc2cccc(C(=O)Nc3cc(C(=O)Nc4ccc(S(=O)(=O)O)c5cc(S(=O)(=O)O)cc(S(=O)(=O)O)c45)ccc3C)c2)c1 [suramin, reference compound]
[3]
  IC50: 21 µM
NSD3/WHSC1L1 (h)
  IC50: 1.5 µM
